Tests used:
[1] = Metabolic stability in human liver microsomes; assay type: in vitro ADME
Protocol: (§1) Main solutions were prepared according to Table 9 below:
(§2) (II) Two Separate Experiments were Performed • a) With cofactor (NADPH): 25 μL of 10 mM NADPH was added to the culture broth. The final concentration of liver microsomes was 0.5 mg/mL, and the final concentration of NADPH was 1 mM. • b) Without cofactor (NADPH): 25 μL of 100 mM phosphate buffer was added. The final concentration of liver microsomes was 0.5 mg/mL. The mixture was preheated at 37° C. for 10 minutes. (III) 25 μL of […] control compound or test compound solution was added to start the reaction. […] The final concentrations of the test compound and control compound were both 1 μM. The culture broth was cultured in water at 37° C. (IV) Aliquots of 30 μL were collected from the reaction solution at 0.5, 5, 15, 30, and 60 minutes, respectively. 5 volumes of cold acetonitrile and IS (internal standard, containing 100 nM of alprazolam, 200 nM of caffeine, and 100 nM of tolylbutanamide) were added to stop the reaction. […] 100 μL of supernatant was taken and mixed with 100 μL of ultrapure water, equally divided and analyzed with LC-MS/MS.
(§3) All calculations were conducted using Microsoft Excel. The peak area was determined from the extracted ion chromatogram.
(§4) [formula] [formula] [formula] • wherein, QH is the hepatic blood flow (mL/min/kg) in Table 10, and fub is the fraction of drug unbound in plasma, and assumed as 1.

[2] = Metabolic stability in monkey liver microsomes; assay type: in vitro ADME
Protocol: as §1, §2, §3, §4

[3] = Metabolic stability in dog liver microsomes; assay type: in vitro ADME
Protocol: as §1, §2, §3, §4

[4] = Plasma stability in human plasma; assay type: in vitro ADME
Protocol: The final concentration of organic solvents was 0.5%. The test was conducted in duplicate. • C.
Samples were analyzed with LC-MS/MS. All calculations were conducted using Microsoft Excel.

[5] = Plasma stability in rat plasma; details: rat, plasma
Protocol: 1 mM working solution of the test compound was prepared in DMSO. 1 mM working solution of propantheline was prepared in acetonitrile. 1 mM working solution of lovastatin (mevinolin) was prepared in DMSO. Propantheline was used as a positive control for human, monkey, dog, and mouse plasma stability tests. Lovastatin was a positive control for rat plasma stability test.
• A. 398 μL of plasma per well was added to the culture plate, and the plate was preheated at 37° C. for 15 minutes. • B. After preincubation, 2 μL of working solution (test solution or control solution) was added to the 398 μL plasma mentioned above, resulting in a final concentration of 5 μM. The final concentration of organic solvents was 0.5%. The test was conducted in duplicate. • C. The reaction sample was incubated at 37° C. • D. 50 μL was extracted from the reaction sample at 0, 15, 30, 60, and 120 minutes, respectively. […] 100 μL of supernatant was taken and transferred to a new plate. The supernatant was diluted with ultrapure water according to the LC-MS signal response and peak shape.
Samples were analyzed with LC-MS/MS. All calculations were conducted using Microsoft Excel. The peak area ratio was determined from the extracted ion chromatogram. • (1) The percentage of the remaining compound at each time point was calculated with the following formula: […]
wherein the slope value k was determined by linear regression of the natural logarithm of the remaining percentage of the parent drug vs. incubation time curve.

For CC(C)NP(=O)(OCc1ccc([N+](=O)[O-])c(Oc2ccc(-c3ccc(F)cc3)c(F)c2)c1)OCC1OC(C2N=CC(N)=NC2=O)C(F)(F)C1O (stereo not shown) [Compound H11], the “Hepatic Extraction Ratio (ER)” value [1] was 0.69, the “Predicted Hepatic CLH” value [1] was 14.41 mL/min/kg and the “clearance and stability in liver microsomes (in words)” value (“clearance and stability” for short) [1] was “medium clearances and certain stability”. For the same compound, the “Remaining percentage (%)” value ([1]; NADPH added, 0.5 minutes, 1 μM) was 100.00%, the “Remaining percentage (%)” value ([1]; NADPH added, 5 minutes) was 86.00% and the “Remaining percentage (%)” value ([1]; NADPH added, 15 minutes) was 63.82%. For the same compound, the “Remaining percentage (%)” value ([1]; NADPH added, 30 minutes) was 43.87%, the “Remaining percentage (%)” value ([1]; NADPH added, 60 minutes) was 26.14% and the “Remaining percentage (%)” value ([1]; NADPH not added, 0.5 minutes) was 100.00%. The “Remaining percentage (%)” value ([1]; NADPH not added, 60 minutes) was 100.86%, the half-life at 1 μM ([1]; read-out: In vitro half-life t1/2) was 31 min and the microsomal CLint at 1 μM ([1]; read-out: In vitro intrinsic clearance CLint) was 44.7 µL/min/mg. For the same compound, the CLint scaled at 1 μM ([1]; read-out: Scale-up CLint) was 46 mL/min/kg, the “Hepatic Extraction Ratio (ER)” value [2] was 0.88 and the “Predicted Hepatic CLH” value [2] was 38.81 mL/min/kg. For the same compound, the “clearance and stability” value [2] was “high clearance and poor stability”, the “Remaining percentage (%)” value ([2]; NADPH added, 0.5 minutes, 1 μM) was 100.00% and the “Remaining percentage (%)” value ([2]; NADPH added, 5 minutes) was 46.01%. For the same compound, the “Remaining percentage (%)” value ([2]; NADPH added, 15 minutes) was 13.27%, the “Remaining percentage (%)” value ([2]; NADPH added, 30 minutes) was 0.59% and the “Remaining percentage (%)” value ([2]; NADPH added, 60 minutes) was 0.09%. For the same compound, the “Remaining percentage (%)” value ([2]; NADPH not added, 0.5 minutes) was 100.00%, the “Remaining percentage (%)” value ([2]; NADPH not added, 60 minutes) was 105.87% and the half-life at 1 μM ([2]; monkey, read-out: In vitro half-life t1/2) was 5.06 min. The microsomal CLint at 1 μM ([2]; monkey, read-out: In vitro intrinsic clearance CLint) was 275 µL/min/mg, the CLint scaled at 1 μM ([2]; monkey, read-out: Scale-up CLint) was 330 mL/min/kg and the “Hepatic Extraction Ratio (ER)” value [3] was 0.68. For the same compound, the “Predicted Hepatic CLH” value [3] was 21.21 mL/min/kg, the “clearance and stability” value [3] was “medium clearances and certain stability” and the “Remaining percentage (%)” value ([3]; NADPH added, 0.5 minutes, 1 μM) was 100.00%. For the same compound, the “Remaining percentage (%)” value ([3]; NADPH added, 5 minutes) was 90.20%, the “Remaining percentage (%)” value ([3]; NADPH added, 15 minutes) was 71.99% and the “Remaining percentage (%)” value ([3]; NADPH added, 30 minutes) was 52.53%. The “Remaining percentage (%)” value ([3]; NADPH added, 60 minutes) was 32.12%, the “Remaining percentage (%)” value ([3]; NADPH not added, 0.5 minutes) was 100.00% and the “Remaining percentage (%)” value ([3]; NADPH not added, 60 minutes) was 92.14%. The half-life at 1 μM ([3]; dog, read-out: In vitro half-life t1/2) was 36.3 min, the microsomal CLint at 1 μM ([3]; dog, read-out: In vitro intrinsic clearance CLint) was 38.2 µL/min/mg and the CLint scaled at 1 μM ([3]; read-out: Scale-up CLint) was 67.2 mL/min/kg. For the same compound, the “t1/2 (min)” value [4] was “∞”, the “Remaining percentage (%)” value ([4]; 0 min, 5 μM, 37° C.) was 100.00% and the “plasma stability (in words)” value ([4]; 37° C., at least 2 hours) was “stable and has no significant metabolism”. For the same compound, the “Remaining percentage (%)” value ([4]; 15 min) was 95.74%, the “Remaining percentage (%)” value ([4]; 30 min) was 94.17% and the “Remaining percentage (%)” value ([4]; 60 min) was 102.77%. The “Remaining percentage (%)” value ([4]; 120 min) was 99.46%, the “t1/2 (min)” value [5] was “∞” and the “Remaining percentage (%)” value ([5]; 0 h, 5 μM) was 100.00%. For the same compound, the “Remaining percentage (%)” value ([5]; 0.25 h, 5 µM) was 108.59%, the “Remaining percentage (%)” value ([5]; 0.5 h, 5 µM) was 105.39% and the “Remaining percentage (%)” value ([5]; 1 h, 5 µM) was 100.74%. For the same compound, the “Remaining percentage (%)” value ([5]; 2 h, 5 µM) was 109.53%.
